Results as given in PubChem BioAssay AID2060885 (Molecular Pharmacology Branch, DTP, NCI, 2025).

Tested on: NCI-H23 complex spheroids with HUVEC/MSC, viability
Test: Anticancer human tumor NCI-H23 cell line growth inhibition [RAS];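 note: spheroids exposed to compound for 7 days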;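 for viability, T/C: 100% = DMSO vehicle control viability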
Conditions: for IC50: curve of first compound; for viability, T/C: stronger effect = lower value; active = viability on the fitted dose curve at most 10% of control; inactive = the rest
In short: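 Agents were tested in combination matrices in half-log decrements from a top concentration at or near clinical Cmax (10 microM if undetermined). Targets were multi-cell spheroids of tumour lines plus HUVEC and MSC stromal cells.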

[1] = second compound 0.00316 µM, first compound 0.0316 µM
[2] = second compound 0.00316 µM, first compound 0.1 µM
[3] = second compound 0.00316 µM, first compound 0.316 µM
[4] = second compound 0.00316 µM, first compound 1 µM
[5] = second compound 0.00316 µM, first compound 3.16 µM
[6] = second compound 0.00316 µM, first compound 10 µM
[7] = second compound 0.01 µM, first compound 0.0316 µM
[8] = second compound 0.01 µM, first compound 0.1 µM
[9] = second compound 0.01 µM, first compound 0.316 µM
[10] = second compound 0.01 µM, first compound 1 µM
[11] = second compound 0.01 µM, first compound 3.16 µM
[12] = second compound 0.01 µM, first compound 10 µM
[13] = second compound 0.0316 µM, first compound 0.0316 µM
[14] = second compound 0.0316 µM, first compound 0.1 µM
[15] = second compound 0.0316 µM, first compound 0.316 µM
[16] = second compound 0.0316 µM, first compound 1 µM
[17] = second compound 0.0316 µM, first compound 3.16 µM
[18] = second compound 0.0316 µM, first compound 10 µM
[19] = second compound 0.1 µM, first compound 0.0316 µM
[20] = second compound 0.1 µM, first compound 0.1 µM
[21] = second compound 0.1 µM, first compound 0.316 µM
[22] = second compound 0.1 µM, first compound 1 µM
[23] = second compound 0.1 µM, first compound 3.16 µM
[24] = second compound 0.1 µM, first compound 10 µM
[25] = second compound 0.316 µM, first compound 0.0316 µM
[26] = second compound 0.316 µM, first compound 0.1 µM
[27] = second compound 0.316 µM, first compound 0.316 µM
[28] = second compound 0.316 µM, first compound 1 µM
[29] = second compound 0.316 µM, first compound 3.16 µM
[30] = second compound 0.316 µM, first compound 10 µM
[31] = second compound 1 µM, first compound 0.0316 µM
[32] = second compound 1 µM, first compound 0.1 µM
[33] = second compound 1 µM, first compound 0.316 µM
[34] = second compound 1 µM, first compound 1 µM
[35] = second compound 1 µM, first compound 3.16 µM
[36] = second compound 1 µM, first compound 10 µM

CC(C)NCC(C(=O)N1CCN(c2ncnc3c2C(C)CC3O)CC1)c1ccc(Cl)cc1 (stereo unspecified) + C=CC(=O)N1CCN(c2nc(OCC3CCCN3C)nc3c(F)c(-c4nc(N)cc(C)c4C(F)(F)F)c(Cl)cc23)C(C)C1
548 nM: IC50 (second compound 0.00316 µM)
85.9 nM: IC50 (second compound 0.01 µM)
inactive: viability, T/C [1] 57.1% | viability, T/C [2] 67.7% | viability, T/C [3] 51.7% | viability, T/C [4] 45.4% | viability, T/C [5] 33.4% | viability, T/C [6] 29.2% | viability, T/C [7] 52.5% | viability, T/C [8] 54.5% | viability, T/C [9] 39.5% | viability, T/C [10] 37% | viability, T/C [11] 28.4% | viability, T/C [12] 20% | viability, T/C [13] 39.1% | viability, T/C [14] 48.1% | viability, T/C [15] 31.2% | viability, T/C [16] 30.2% | viability, T/C [17] 24.3% | viability, T/C [18] 16.9% | viability, T/C [19] 39.3% | viability, T/C [20] 39.4% | viability, T/C [21] 29.9% | viability, T/C [22] 25.8% | viability, T/C [23] 20.2% | viability, T/C [24] 18.8% | viability, T/C [25] 37% | viability, T/C [26] 34.2% | viability, T/C [27] 28.9% | viability, T/C [28] 23.1% | viability, T/C [29] 21.3% | viability, T/C [30] 17.9% | viability, T/C [31] 34.9% | viability, T/C [32] 37.1% | viability, T/C [33] 34.2% | viability, T/C [34] 26.1% | viability, T/C [35] 23.3% | viability, T/C [36] 16.6%
< 31.6 nM: IC50 (second compound 0.0316 µM) | IC50 (second compound 0.1 µM) | IC50 (second compound 0.316 µM) | IC50 (second compound 1 µM)

CC(C)n1nc(-c2ccc3oc(N)nc3c2)c2c(N)ncnc21 + C=CC(=O)N1CCN(c2nc(OCC3CCCN3C)nc3c(F)c(-c4nc(N)cc(C)c4C(F)(F)F)c(Cl)cc23)C(C)C1
0.445 nM: IC50 (second compound 0.01 µM)
3.25 nM: IC50 (second compound 0.00316 µM)
< 0.316 nM: IC50 (second compound 0.0316 µM) | IC50 (second compound 0.1 µM) | IC50 (second compound 0.316 µM) | IC50 (second compound 1 µM)
inactive: viability, T/C (second compound 0.00316 µM, first compound 0.000316 µM) 58.9% | viability, T/C (second compound 0.00316 µM, first compound 0.001 µM) 68.7% | viability, T/C (second compound 0.00316 µM, first compound 0.00316 µM) 45.9% | viability, T/C (second compound 0.00316 µM, first compound 0.01 µM) 35.2% | viability, T/C [1] 27.3% | viability, T/C [2] 17.7% | viability, T/C (second compound 0.01 µM, first compound 0.000316 µM) 52.1% | viability, T/C (second compound 0.01 µM, first compound 0.001 µM) 44.1% | viability, T/C (second compound 0.01 µM, first compound 0.00316 µM) 35.5% | viability, T/C (second compound 0.01 µM, first compound 0.01 µM) 25.7% | viability, T/C [7] 21.2% | viability, T/C [8] 16.9% | viability, T/C (second compound 0.0316 µM, first compound 0.000316 µM) 39.7% | viability, T/C (second compound 0.0316 µM, first compound 0.001 µM) 43.7% | viability, T/C (second compound 0.0316 µM, first compound 0.00316 µM) 28.2% | viability, T/C (second compound 0.0316 µM, first compound 0.01 µM) 26.2% | viability, T/C [13] 17.3% | viability, T/C [14] 16.9% | viability, T/C (second compound 0.1 µM, first compound 0.000316 µM) 37.8% | viability, T/C (second compound 0.1 µM, first compound 0.001 µM) 32.5% | viability, T/C (second compound 0.1 µM, first compound 0.00316 µM) 26.3% | viability, T/C (second compound 0.1 µM, first compound 0.01 µM) 23.8% | viability, T/C [19] 17.9% | viability, T/C [20] 14.2% | viability, T/C (second compound 0.316 µM, first compound 0.000316 µM) 30.6% | viability, T/C (second compound 0.316 µM, first compound 0.001 µM) 38.3% | viability, T/C (second compound 0.316 µM, first compound 0.00316 µM) 29.5% | viability, T/C (second compound 0.316 µM, first compound 0.01 µM) 22.3% | viability, T/C [25] 17.1% | viability, T/C [26] 15.8% | viability, T/C (second compound 1 µM, first compound 0.000316 µM) 27.9% | viability, T/C (second compound 1 µM, first compound 0.001 µM) 33.8% | viability, T/C (second compound 1 µM, first compound 0.00316 µM) 32.2% | viability, T/C (second compound 1 µM, first compound 0.01 µM) 25.9% | viability, T/C [31] 22.5% | viability, T/C [32] 16.2%

CC(Nc1ccc2c(c1)OCCn1cc(N3C(=O)OCC3C(F)F)nc1-2)C(N)=O (stereo unspecified) + C=CC(=O)N1CCN(c2nc(OCC3CCCN3C)nc3c(F)c(-c4nc(N)cc(C)c4C(F)(F)F)c(Cl)cc23)C(C)C1
142 nM: IC50 (second compound 0.00316 µM)
inactive: viability, T/C [1] 51.2% | viability, T/C [2] 60.2% | viability, T/C [3] 34.6% | viability, T/C [4] 39.1% | viability, T/C [5] 35.8% | viability, T/C [6] 38.3% | viability, T/C [7] 43.8% | viability, T/C [8] 40.7% | viability, T/C [9] 35.9% | viability, T/C [10] 28.7% | viability, T/C [11] 31% | viability, T/C [12] 26.5% | viability, T/C [13] 36.4% | viability, T/C [14] 35.5% | viability, T/C [15] 27.2% | viability, T/C [16] 27.3% | viability, T/C [17] 24.8% | viability, T/C [18] 23.3% | viability, T/C [19] 31.4% | viability, T/C [20] 29.3% | viability, T/C [21] 26.4% | viability, T/C [22] 27.6% | viability, T/C [23] 22.9% | viability, T/C [24] 22.4% | viability, T/C [25] 28.7% | viability, T/C [26] 31.2% | viability, T/C [27] 30% | viability, T/C [28] 23.7% | viability, T/C [29] 25.9% | viability, T/C [30] 24.3% | viability, T/C [31] 33% | viability, T/C [32] 33.5% | viability, T/C [33] 28.8% | viability, T/C [34] 22.5% | viability, T/C [35] 27.8% | viability, T/C [36] 25%
< 31.6 nM: IC50 (second compound 0.01 µM) | IC50 (second compound 0.0316 µM) | IC50 (second compound 0.1 µM) | IC50 (second compound 0.316 µM) | IC50 (second compound 1 µM)
